Experiments:
[1] = target: T1, rat PTH1R (Rattus norvegicus, UniProt P25961); experiment: In vitro cAMP signaling activity via the rat PTH1R (LLC-PK46_RATO_PTH1R cells); format: cell-based; details: LLC-PK46_RATO_PTH1R cells overexpressing rat PTH1R
T1 construct: expressed in transfected cells
T1 sequence (P25961 27-591): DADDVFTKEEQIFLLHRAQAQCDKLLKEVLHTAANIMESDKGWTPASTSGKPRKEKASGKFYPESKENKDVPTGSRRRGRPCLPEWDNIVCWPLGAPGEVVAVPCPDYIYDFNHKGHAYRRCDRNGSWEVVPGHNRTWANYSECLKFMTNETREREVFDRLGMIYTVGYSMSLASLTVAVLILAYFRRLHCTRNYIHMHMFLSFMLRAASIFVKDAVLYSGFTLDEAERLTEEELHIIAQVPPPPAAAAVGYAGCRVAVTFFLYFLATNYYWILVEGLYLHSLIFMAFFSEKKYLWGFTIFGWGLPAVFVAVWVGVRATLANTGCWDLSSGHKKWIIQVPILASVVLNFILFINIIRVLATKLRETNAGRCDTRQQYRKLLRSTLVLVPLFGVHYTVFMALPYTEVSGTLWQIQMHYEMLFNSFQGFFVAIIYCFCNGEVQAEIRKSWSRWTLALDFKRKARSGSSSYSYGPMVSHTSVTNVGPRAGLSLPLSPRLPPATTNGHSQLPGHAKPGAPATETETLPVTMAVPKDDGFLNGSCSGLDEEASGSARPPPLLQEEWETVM
Text: Instead of HKRK-B7 cells, LLC-PK46_RATO_PTH1R cells overexpressing rat PTH1R, which were established at Chugai Pharmaceutical, were used to take measurements in a similar manner to Reference Test Example 1.

[2] = tested on: rat hepatocyte; experiment: Metabolic stability using rat hepatocyte; format: in vitro ADME
Protocol: Liver cells were prepared from the liver of rats (SD, female) by a collagenase perfusion method. A compound of the Reference Examples or a Comparative Example was added, and this was incubated at 37° C. for a specified amount of time, followed by addition of a reaction-stopping solution. The concentration of the parent compound at each reaction time was measured using LC/MS/MS, and inherent clearance (μL/10^6 cells/min) was calculated from the slope of the reaction time versus residual rate.
• Cell concentration: 1×10^6 cells/mL • Compound concentration: 1 μM • Medium: Williams' medium E • Reaction time: 0, 15, 30, 60, 120, and 240 minutes • Reaction-stopping solution: acetonitrile/2-propanol (4/6, v/v)

[3] = tested on: TPTX rat; experiment: Calcemic action in the TPTX rat model; format: in vivo; details: TPTX rats, 30 mg/kg oral; for change of serum Ca concentration from the Pre-value (in words): up to 24 hours after administration
Protocol: Four-week old female Crl:CD(SD) rats were obtained from Charles River Japan (Atsugi Breeding Center), and were acclimated to standard laboratory conditions of 20-26° C. and 35-75% humidity for one week. The rats were given tap water and were fed ad libitum with standard rodent chow (CE-2) (CLEA Japan, Inc.) containing 1.1% calcium, 1.0% phosphoric acid, and 250 IU/100 g of vitamin D3.
TPTX was performed on five-week old rats. Some of the individuals were subjected to sham operation (Sham). Individuals whose serum Ca concentration was less than 8 mg/dL on four days after the operation were selected for use as TPTX rats. On five days after the operation, the rats were assigned to eight TPTX groups and one Sham group (n=5, each group) based on their body weight and serum Ca concentration measured on four days after the operation. The solvent alone was orally administered to the Sham group and the TPTX-Vehicle group at a volume of 10 mL/kg. Each test article was orally administered individually to each TPTX test article group by dissolving it in a solvent at a dose of 30 mg/10 mL/kg. The solvent composition was 10% dimethylsulfoxide (Wako Pure Chemical Industries, Ltd.), 10% Cremophor EL (Sigma-Aldrich Japan LLC), 20% hydroxypropyl-β-cyclodextrin (Nihon Shokuhin Kako Co., Ltd.), glycine (Wako Pure Chemical Industries, Ltd.); and the pH was adjusted to 10. Immediately before administration of each sample, Pre-blood collection was performed, and blood collection was carried out at 2, 6, 10, and 24 hours after administration to measure the serum Ca concentration. Each blood collection was carried out from the jugular vein under isoflurane inhalation anesthesia.
Serum Ca measurement: Serum obtained by centrifugation from the collected blood was measured by using an automatic analyzer TBA-120FR (Toshiba Medical Systems Corporation).
For statistical analysis of the animal studies, data are shown as mean±standard error (SE). Statistical analysis were performed by unpaired test of the SAS Preclinical Package (Ver. 5.00.010720, SAS Institute Japan, Tokyo, Japan).

[4] = target: T2, human PTH1R (Homo sapiens, UniProt Q03431); experiment: In vitro cAMP signal activity via the human PTH1R (HKRK-B7 cells); format: cell-based; details: concentration at 20% cAMP signaling activity, human PTH(1-34) at 100 nM = 100%
T2 construct: expressed in transfected cells; host or cells: HKRK-B7 (LLC-PK1 porcine kidney cells stably expressing human PTH1R)
T2 sequence (Q03431 27-593): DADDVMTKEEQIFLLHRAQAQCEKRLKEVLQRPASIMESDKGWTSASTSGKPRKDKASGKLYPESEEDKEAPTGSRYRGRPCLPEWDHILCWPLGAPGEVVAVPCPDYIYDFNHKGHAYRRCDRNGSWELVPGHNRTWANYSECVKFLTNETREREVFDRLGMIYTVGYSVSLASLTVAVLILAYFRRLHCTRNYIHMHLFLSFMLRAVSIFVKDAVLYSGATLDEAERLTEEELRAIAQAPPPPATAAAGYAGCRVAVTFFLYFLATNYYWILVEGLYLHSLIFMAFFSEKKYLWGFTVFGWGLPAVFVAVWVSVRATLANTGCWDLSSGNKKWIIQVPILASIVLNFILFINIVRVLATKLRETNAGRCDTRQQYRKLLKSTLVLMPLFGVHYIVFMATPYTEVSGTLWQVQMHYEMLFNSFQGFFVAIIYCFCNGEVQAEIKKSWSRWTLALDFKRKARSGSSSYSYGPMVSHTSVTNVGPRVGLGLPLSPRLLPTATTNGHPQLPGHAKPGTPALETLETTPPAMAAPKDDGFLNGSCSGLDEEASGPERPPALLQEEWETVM
Protocol: Human PTH(1-34) and calcitonin were purchased from Peptide Institute, Inc. (Osaka, Japan), dissolved in 10 mM acetic acid to 1 mM and stored in a −80° C. freezer.
Cells were cultured in Dulbecco's modified Eagle's medium (DMEM) supplemented with 10% fetal bovine serum (Hyclone), 100 units/ml penicillin G and 100 μg/ml streptomycin sulfate (Invitrogen Corp) at 37° C. in a humidified atmosphere containing 5% CO2.
cAMP signal transduction analysis utilized LLC-PK1 cells not expressing the PTH1R, and HKRK-B7 cells, that is, LLC-PK1 cells overexpressing the human PTH1R at 9.5×10^5 receptors/cell (Takasu et al., J. Bone. Miner. Res. 14:11-20, 1999).
HKRK-B7 or LLC-PK1 cells were seeded into a 96-well plate at 1×10^5 cells/well and incubated overnight. On the following day, 50 μl of cAMP assay buffer (DMEM, 2 mM IBMX, 0.2 mg/ml bovine serum albumin, 35 mM Hepes-NaOH, pH 7.4) containing human PTH(1-34) or each compound was added and the plate was placed in a 37° C. incubator. The cells were incubated for 20 minutes. After removing the medium, the cells were washed with 100 μl of cAMP assay buffer once. The plate was placed on dry ice powder to freeze the cells and then removed from the dry ice. The cells were lysed with 40 μl of 50 mM HCl and frozen again on dry ice. The amount of intracellular cAMP produced was measured using a commercially available cAMP EIA kit (Biotrack cAMP EIA system, GE health care).
Analyses were performed using a variable gradient S-shaped dose-response curve equation.

[5] = tested on: human articular chondrocytes; experiment: Proteoglycan synthesis by human articular chondrocytes (35S-sulfate incorporation); format: cell-based; details: TGF-β1 10 ng/mL, cultured for 13 days
Protocol: After purchase of cryopreserved human articular chondrocytes (Lot 2867, Cell Applications Inc.), the cells were thawed in a 37° C. water bath, 15 mL of Basal Medium supplemented with 10% Growth Supplement (Growth Medium, Cell Applications Inc.) was placed in a T75 culture flask (CORNING, Corning Japan K. K.) to culture the cells, and exchanged the next day with 15 mL of Growth Medium; and the cells were cultured for three days. Growth Medium was then removed, and HBSS (Cell Applications Inc.) was used to wash the chondrocyte layer. With addition of 1 mL of trypsin/EDTA solution (Cell Applications Inc.), this was left to stand at room temperature for approximately five minutes, and chondrocytes were detached from the flask. With 10 mL of Neutralization solution (Cell Applications Inc.) added, Bulker-Turk hemocytometer was used to determine the cell count, and the cells were then transferred to a 15-mL test tube for centrifugation (1,200 rpm for five minutes, Tomy Seiko Co., Ltd.) to produce a chondrocyte pellet. The supernatant was discarded, and the cells were placed in a 1.2% sodium alginate solution (25 mmol/L HEPES/150 mmol/L sodium chloride solution, pH7.0) at 2×10^6 cells/mL. This was drawn into a 1-mL syringe (Terumo Corporation) equipped with a 22G injection needle, five drops were added to each well of a 24-well plate (Corning Japan K.K.) containing 2 mL of 102 mmol/L aqueous CaCl2 solution, and this was left to stand for five minutes to form beads. Subsequently, this was washed three times with a 150 mmol/L sodium chloride solution and incubated for one day in Growth Medium, and the medium was exchanged with Basal Medium supplemented with 1% Growth supplement (Cell Applications Inc.). In this procedure, the following factors were added to the medium, and the cells were cultured for 13 days with three times of medium exchange performed per week.
On day 12 of culturing, ^35S-labeled sulfuric acid (PerkinElmer Japan Co., Ltd.) was added at 370 kBq/well, and the medium was collected 24 hours later into a test tube and stored at 4° C. To the alginate gel, a 55 mmol/L sodium citrate solution (Nacalai Tesque, Inc.; 1 mL/well) was added, and this was incubated at 37° C. for ten minutes for solation. This was collected into a microtube (Eppendorf AG) and then centrifuged (1,200 rpm, five minutes) to produce a chondrocyte pellet. […] The glass filter was transferred to a liquid scintillation counter vial, 5 mL of scintillator (Hionic-Fluor, PerkinElmer Japan Co., Ltd.) was added and radioactivity was measured on a liquid scintillation counter (TRI-CARB, PerkinElmer Japan Co., Ltd.).
The remaining 0.1 mL of the digested solution was used for DNA quantification. […]

Cc1cc(N2C(=O)NC(=O)C23CCCC3)cc(C)c1CCS(=O)(=O)N1CCC2(CC1)N=C(c1ccc(OC(F)(F)F)cc1)NC2=O [Compound 8, 1-(3,5-dimethyl-4-(2-((4-oxo-2-(4-(trifluoromethoxy)phenyl)-1,3,8-triazaspiro[4.5]deca-1-en-8-yl)sulfonyl)ethyl)phenyl)-1,3-diazaspiro[4.4]nonane-2,4-dione]
EC20 [1]: 400 nM | rat hepatocyte metabolic stability compared to Comparative Examples 1, 2, 3, 5, and 6 (in words) [2]: increased | achievement of the therapeutic target range of serum Ca concentration of 7.6 to 8.8 mg/dL [3]: achieved the therapeutic target range | change of serum Ca concentration from the Pre-value (in words) [3]: large positive changes from the Pre-value

Cc1cc(N2C(=O)NC(=O)C23CC3)cc(C)c1CCS(=O)(=O)N1CCC2(CC1)N=C(c1ccc(OC(F)(F)F)cc1)NC2=O [Compound 11, 4-(3,5-dimethyl-4-(2-((4-oxo-2-(4-(trifluoromethoxy)phenyl)-1,3,8-triazaspiro[4.5]deca-1-en-8-yl)sulfonyl)ethyl)phenyl)-4,6-diazaspiro[2.4]heptane-5,7-dione]
EC20 [1]: 800 nM | EC20 [4]: 1500 nM | rat hepatocyte metabolic stability compared to Comparative Examples 1, 2, 3, 5, and 6 (in words) [2]: increased

Cc1cc(N2C(=O)NC(=O)C23COC3)cc(C)c1CCS(=O)(=O)N1CCC2(CC1)N=C(c1ccc(OC(F)(F)F)cc1)NC2=O [Compound 10, 5-(3,5-dimethyl-4-(2-((4-oxo-2-(4-(trifluoromethoxy)phenyl)-1,3,8-triazaspiro[4.5]deca-1-en-8-yl)sulfonyl)ethyl)phenyl)-2-oxa-5,7-diazaspiro[3.4]octane-6,8-dione]
EC20 [1]: 3000 nM | EC20 [4]: 5000 nM | rat hepatocyte metabolic stability compared to Comparative Examples 1, 2, 3, 5, and 6 (in words) [2]: increased

TGF-β1: Positive control for proteoglycan synthesis, 10 ng/mL [reference compound]
radioactivity (proteoglycan synthesis, cpm/μg DNA) relative to the vehicle control [5]: 10 fold

Cc1cc(N2C(=O)CNC2=O)ccc1CCS(=O)(=O)N1CCC2(CC1)N=C(c1cccc(OC(F)(F)F)c1)NC2=O [Comparative Example 1, reference compound]
EC20 [1]: 800 nM | EC20 [4]: 1500 nM | achievement of the therapeutic target range of serum Ca concentration of 7.6 to 8.8 mg/dL [3]: could not be achieved | change of serum Ca concentration from the Pre-value (in words) [3]: smaller positive changes from the Pre-value

From patent publication US9993462B2, “Hydantoin derivative-containing pharmaceutical composition” (Chugai Seiyaku Kabushiki Kaisha, priority 2014, dated 2018)
